Experimental findings from ChEMBL document CHEMBL1125472, “5-lipoxygenase: properties, pharmacology, and the quinolinyl(bridged)aryl class of inhibitors” (J Med Chem, 1992) are described below.

Each structure is given as a SMILES string.

For series [1], the species on record is Rattus norvegicus. As to the kind of experiment: The compound was tested for inhibitory activity against […] synthesis in rat macrophages. The format is functional.
Series [2] deals with RBL-1. The series can be described thus: The compound was tested for inhibitory activity in rat RBL-1 cells. The format is functional, cell-based.
The subject of series [3] is Cavia porcellus. As to the kind of experiment: The compound was tested for inhibition of LTD4-induced bronchoconstriction in guinea pig at 50 mg/kg (in vivo). The format is functional. To be noted: read-out: Inhibition.
Series [4] addresses T1, Cyclooxygenase (Rattus norvegicus, UniProt P35355+Q63921).
T1 sequence (P35355 whole entry): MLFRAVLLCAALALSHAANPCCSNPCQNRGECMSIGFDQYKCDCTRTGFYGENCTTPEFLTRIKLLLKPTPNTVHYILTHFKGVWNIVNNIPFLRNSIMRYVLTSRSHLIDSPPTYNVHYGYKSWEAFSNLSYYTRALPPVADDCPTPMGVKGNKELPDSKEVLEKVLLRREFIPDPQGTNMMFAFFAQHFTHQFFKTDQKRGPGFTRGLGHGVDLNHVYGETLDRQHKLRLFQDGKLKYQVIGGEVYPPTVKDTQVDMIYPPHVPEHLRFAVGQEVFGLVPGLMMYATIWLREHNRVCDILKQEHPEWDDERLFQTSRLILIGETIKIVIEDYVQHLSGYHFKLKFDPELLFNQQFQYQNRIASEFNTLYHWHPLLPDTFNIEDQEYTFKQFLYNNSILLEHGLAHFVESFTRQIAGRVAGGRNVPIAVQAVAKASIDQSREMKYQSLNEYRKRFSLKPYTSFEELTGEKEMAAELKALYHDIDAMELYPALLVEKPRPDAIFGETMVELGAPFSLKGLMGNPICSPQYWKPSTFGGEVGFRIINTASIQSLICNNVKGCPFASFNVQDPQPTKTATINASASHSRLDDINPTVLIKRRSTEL
T1 sequence (Q63921 whole entry): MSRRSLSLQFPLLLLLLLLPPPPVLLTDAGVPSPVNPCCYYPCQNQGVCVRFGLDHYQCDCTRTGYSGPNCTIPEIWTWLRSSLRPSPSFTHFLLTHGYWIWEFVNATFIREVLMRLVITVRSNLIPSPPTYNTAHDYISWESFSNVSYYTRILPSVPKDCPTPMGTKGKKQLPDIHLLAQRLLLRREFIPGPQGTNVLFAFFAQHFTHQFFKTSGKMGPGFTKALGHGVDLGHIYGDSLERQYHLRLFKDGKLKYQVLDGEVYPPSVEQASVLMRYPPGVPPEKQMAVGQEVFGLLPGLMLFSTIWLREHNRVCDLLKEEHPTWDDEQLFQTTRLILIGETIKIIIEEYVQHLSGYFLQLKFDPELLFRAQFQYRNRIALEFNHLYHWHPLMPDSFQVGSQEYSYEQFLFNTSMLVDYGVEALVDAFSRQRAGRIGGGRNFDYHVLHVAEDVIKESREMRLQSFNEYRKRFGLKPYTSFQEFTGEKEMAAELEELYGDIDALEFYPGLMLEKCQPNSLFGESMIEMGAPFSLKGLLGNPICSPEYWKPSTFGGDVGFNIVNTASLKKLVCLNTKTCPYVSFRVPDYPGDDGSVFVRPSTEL
The series can be described thus: The compound was tested for inhibitory activity against Prostaglandin G/H synthase using rat polymorphonuclear leukocytes[PMNS].

The target in series [5] is T2, Polyunsaturated fatty acid 5-lipoxygenase (Rattus norvegicus, UniProt P12527).
T2 sequence (P12527 whole entry): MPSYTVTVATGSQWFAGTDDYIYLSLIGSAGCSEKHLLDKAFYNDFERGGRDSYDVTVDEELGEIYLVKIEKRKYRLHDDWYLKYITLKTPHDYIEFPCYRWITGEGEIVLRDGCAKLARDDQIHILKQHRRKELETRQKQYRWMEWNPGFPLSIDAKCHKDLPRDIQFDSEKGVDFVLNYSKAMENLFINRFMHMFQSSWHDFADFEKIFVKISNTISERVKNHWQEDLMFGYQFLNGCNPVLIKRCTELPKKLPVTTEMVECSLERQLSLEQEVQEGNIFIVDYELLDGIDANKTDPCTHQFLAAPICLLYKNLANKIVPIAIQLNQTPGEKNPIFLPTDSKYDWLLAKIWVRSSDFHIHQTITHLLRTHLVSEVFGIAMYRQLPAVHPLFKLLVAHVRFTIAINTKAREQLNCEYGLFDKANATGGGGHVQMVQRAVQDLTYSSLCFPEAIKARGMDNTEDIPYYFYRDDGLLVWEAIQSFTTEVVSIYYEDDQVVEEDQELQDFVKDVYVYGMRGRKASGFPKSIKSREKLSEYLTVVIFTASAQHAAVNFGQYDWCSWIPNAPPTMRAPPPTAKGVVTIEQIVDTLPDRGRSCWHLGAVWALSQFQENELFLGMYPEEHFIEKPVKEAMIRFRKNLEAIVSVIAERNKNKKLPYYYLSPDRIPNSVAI
As to the kind of experiment: The compound was tested for inhibitory activity against 5-lipoxygenase using rat polymorphonuclear leukocytes[PMNS].

The subject of series [6] is RBL-1. The series can be described thus: The compound was tested for inhibitory activity against 5-HETE synthesis in rat RBL-1. The format is functional, cell-based.
Series [7] is filed under the species Mus musculus. As to the kind of experiment: The compound was tested for inhibitory activity which inhibits LTC4 synthesis by zymosan-activated mouse peritoneal macrophages. The format is functional.
The species named for series [8] is Rattus norvegicus. As to the kind of experiment: The compound was tested for inhibitory activity against synthesis of immunoreactive thromboxane B2 in rat PMNs. The format is functional.
The species named for series [9] is Rattus norvegicus. The series can be described thus: The compound was tested for inhibitory activity against synthesis of immunoreactive LTB4. The format is functional.
Series [10] concerns Rattus norvegicus. As to the kind of experiment: The compound was tested for inhibition in rat carrageenan paw edema assay. The format is functional. (In general: The carrageenan paw model is a standard test of acute inflammation.)
Series [11] relates to Cavia porcellus. The series can be described thus: The inhibitory dose for antigen induced bronchoconstriction in guinea pig after peroral administration. The format is functional. The settings on record: po, read-out: ID50 (the source's name).
The nature of series [12]: Oral bioavailability was determined; range 49-102%. The format is ADME, organism-based. To be noted: in vivo, read-out: Bioavailabiility.
Series [13] is described as follows: The compound was tested for inhibitory activity which inhibits prostaglandin E2[PGE2] synthesis by zymosan-activated mouse peritoneal macrophages. The format is functional.
The species entered for series [14] is Cavia porcellus. The series can be described thus: The compound was tested for blocking of LTD4-induced contractions of guinea pig trachea. The format is functional. To be noted: read-out: pA2 (converted).
The nature of series [15]: Plasma half-life was determined; 0.5-17.7h. The format is ADME.

Turning to `CC1=C(C)C(=O)C(CCCCC#CCCCC#CCO)=C(C)C1=O` [DOCEBENONE], the concentration for half-maximal inhibition (IC50) (in general, the concentration that inhibits the measured activity by half) in series [1] was 80 nM.
On to `C[C@H](OCC(=O)O)[C@@H](C)Sc1cc(C(C)(C)C)c(O)c(C(C)(C)C)c1`, for which the IC50 in [2] came to 3.7 µM.
`Oc1cccc(OCc2ccc3ccccc3n2)c1`: the inhibition in vivo at 50 mg/kg in [3] was 82%. In addition, the concentration for half-maximal inhibition (IC50) in series [4] was more than 100 µM; in series [5] it was 6.07 µM.
`CC1=C(C)C(=O)C(Cc2cccnc2)=C(C)C1=O` displayed an IC50 in [6] of 62 nM.
As for `O=S(=O)(Nc1cccc(OCc2ccc3ccccc3n2)c1)C(F)(F)F` [RITOLUKAST], the IC50 in series [7] stood at 4.4 µM; in [8] it was 3.3 µM; in series [9], 4.6 µM; in series [13] it was 4.3 µM. Moreover, the Inhibition (in general, the drop in the measured response relative to a control, in per cent) in series [10] came to 20%. In addition, the ED50 in series [11] came to 0.6 mg/kg. In [12], the bioavailability worked out at 49%. In addition, the Kb in [14] was 24 nM. The half-life – broadly, how long it takes for the measured level to halve – in series [15] was 30 min.
